Experimental data reported in the CheMixHub viscosity set.
Several values for one entry are separate records, joined by “and”; a condition that tells them apart may be missing. Equal entries are not always repeated. ± gives the uncertainty stated by the source.

Assay: xn = mol fraction of the nth substance listed

CCCN + c1ccccc1
viscosity [mPa·s], 101 kPa
Settings | x1 = 0.007866 | x1 = 0.01864 | x1 = 0.02795 | x1 = 0.03664 | x1 = 0.04697 | x1 = 0.0579 | x1 = 0.06586 | x1 = 0.07593 | x1 = 0.08436
303.15 K | 0.5618 ± 0.0043 | 0.5605 ± 0.0043 | 0.5588 ± 0.0043 | 0.5574 ± 0.0043 | 0.5554 ± 0.0043 | 0.5534 ± 0.0043 | 0.552 ± 0.0042 | 0.5501 ± 0.0042 | 0.548 ± 0.0042
313.15 K | 0.4898 ± 0.0039 | 0.4864 ± 0.0039 | 0.4837 ± 0.0039 | 0.4817 ± 0.0039 | 0.4766 ± 0.0039 | 0.4725 ± 0.0039 | 0.4704 ± 0.0039 | 0.467 ± 0.0038 | 0.4636 ± 0.0038

N#CCCl + ClC(Cl)(Cl)Cl
viscosity [mPa·s], 101 kPa
Settings | 293.15 K | 298.15 K | 303.15 K | 313.15 K | 323.15 K
x1 = 0.014 | 0.983 ± 0.026 | 0.907 ± 0.024 | 0.844 ± 0.022 | 0.749 ± 0.02 | 0.672 ± 0.018
x1 = 0.087 | 0.939 ± 0.025 | 0.867 ± 0.023 | 0.803 ± 0.021 | 0.71 ± 0.019 | 0.633 ± 0.017
x1 = 0.222 | 0.914 ± 0.024 | 0.841 ± 0.022 | 0.78 ± 0.02 | 0.688 ± 0.018 | 0.615 ± 0.016

Oc1ccccc1Cl + CCN(CC)c1ccccc1
viscosity [mPa·s], 101 kPa
Settings | x1 = 0.1 | x1 = 0.2015 | x1 = 0.3033 | x1 = 0.4011 | x1 = 0.497 | x1 = 0.6026 | x1 = 0.7 | x1 = 0.7988 | x1 = 0.9003
298 K | 2.116 ± 0.054 | 2.366 ± 0.061 | 2.722 ± 0.07 | 3.122 ± 0.08 | 3.629 ± 0.093 | 4.195 ± 0.11 | 4.548 ± 0.12 | 4.623 ± 0.12 | 4.12 ± 0.11
303 K | 1.858 ± 0.048 | 2.053 ± 0.053 | 2.31 ± 0.059 | 2.589 ± 0.066 | 2.933 ± 0.075 | 3.337 ± 0.085 | 3.533 ± 0.09 | 3.605 ± 0.092 | 3.32 ± 0.085
308 K | 1.668 ± 0.043 | 1.818 ± 0.047 | 2.013 ± 0.052 | 2.192 ± 0.056 | 2.432 ± 0.062 | 2.741 ± 0.07 | 2.89 ± 0.074 | 2.938 ± 0.075 | 2.769 ± 0.071
313 K | 1.507 ± 0.039 | 1.626 ± 0.042 | 1.775 ± 0.046 | 1.94 ± 0.05 | 2.12 ± 0.054 | 2.318 ± 0.059 | 2.42 ± 0.062 | 2.463 ± 0.063 | 2.361 ± 0.061
318 K | 1.37 ± 0.035 | 1.47 ± 0.038 | 1.641 ± 0.042 | 1.701 ± 0.044 | 1.841 ± 0.047 | 1.998 ± 0.051 | 2.086 ± 0.054 | 2.129 ± 0.055 | 2.135 ± 0.055

CC(C)c1ccccc1 + CCc1ccccc1
101.33 kPa, x1 = 0.4675
Settings | viscosity [mPa·s]
293.15 K | 0.696 ± 0.004
313.15 K | 0.545 ± 0.003

CCCCCCCC[N+](C)(C)CCOCCO.Cc1cc(Cl)ccc1OCC(=O)[O-] + CCCCCCCC[N+](C)(C)CCOCCO.COc1c(Cl)ccc(Cl)c1C(=O)[O-]
100 kPa, x1 = 0.58
Settings | viscosity
293.15 K | 12650 ± 4400 mPa·s and 12650 ± 970 mPa·s
303.15 K | 4260 ± 280 mPa·s
313.15 K | 1780 ± 94 mPa·s
323.15 K | 831.5 ± 37 mPa·s

Oc1ccccc1Cl + CCCCN(CCCC)CCCC
298.16 K, 101 kPa
Settings | viscosity [mPa·s]
x1 = 0.5022 | 21.91 ± 0.47
x1 = 0.5499 | 34.61 ± 0.83
x1 = 0.6012 | 82.36 ± 2.6
x1 = 0.6516 | 192.6 ± 9.3
x1 = 0.7025 | 410.1 ± 29
x1 = 0.7266 | 475.5 ± 36
x1 = 0.7554 | 427.4 ± 30
x1 = 0.7826 | 289.1 ± 17
x1 = 0.8001 | 191.3 ± 9.1
x1 = 0.812 | 134.4 ± 5.2
x1 = 0.8523 | 63.53 ± 1.6
x1 = 0.8708 | 39.93 ± 0.82
x1 = 0.8974 | 19.56 ± 0.31
x1 = 0.9113 | 9.963 ± 0.13
x1 = 0.9432 | 4.507 ± 0.047
x1 = 0.9687 | 2.537 ± 0.023
x2 = 0.004631 | 2.323 ± 0.021

C=COC(C)=O + Cc1ccccc1C
viscosity [mPa·s], 101 kPa
Settings | x1 = 0.1492 | x1 = 0.2538 | x1 = 0.3604 | x1 = 0.4517 | x1 = 0.5641 | x1 = 0.6689 | x1 = 0.7705 | x1 = 0.8616 | x1 = 0.9508
303.15 K | 0.632 ± 0.008 | 0.594 ± 0.008 | 0.558 ± 0.007 | 0.529 ± 0.007 | 0.494 ± 0.006 | 0.463 ± 0.006 | 0.435 ± 0.006 | 0.413 ± 0.005 | 0.394 ± 0.005
313.15 K | 0.57 ± 0.007 | 0.537 ± 0.007 | 0.505 ± 0.007 | 0.478 ± 0.006 | 0.446 ± 0.006 | 0.417 ± 0.005 | 0.391 ± 0.005 | 0.37 ± 0.005 | 0.353 ± 0.005

CCCCOC(C)=O + Cc1ccc(C)cc1
viscosity [mPa·s], 101 kPa
Settings | 298.15 K | 308.15 K
x1 = 0.0459 | 0.615 ± 0.005 | 0.537 ± 0.005
x1 = 0.1511 | 0.615 ± 0.005 | 0.54 ± 0.005
x1 = 0.2505 | 0.618 ± 0.005 | 0.543 ± 0.005
x1 = 0.3511 | 0.621 ± 0.005 | 0.547 ± 0.005
x1 = 0.4477 | 0.626 ± 0.005 | 0.552 ± 0.005
x1 = 0.4948 | 0.628 ± 0.005 | 0.555 ± 0.005
x1 = 0.55 | 0.632 ± 0.005 | 0.558 ± 0.005
x1 = 0.6515 | 0.639 ± 0.005 | 0.565 ± 0.005
x1 = 0.7509 | 0.647 ± 0.005 | 0.572 ± 0.005
x1 = 0.8517 | 0.657 ± 0.005 | 0.58 ± 0.005
x1 = 0.9445 | 0.667 ± 0.005 | 0.589 ± 0.005

CCCCOC(C)=O + COCCO
viscosity [mPa·s], 101 kPa
Settings | x2 = 0.0967 | x2 = 0.1995 | x2 = 0.2988 | x2 = 0.3986 | x2 = 0.4983 | x2 = 0.6028 | x2 = 0.697 | x2 = 0.7987 | x2 = 0.9012
298.15 K | 0.703 ± 0.059 | 0.736 ± 0.062 | 0.787 ± 0.066 | 0.841 ± 0.07 | 0.922 ± 0.077 | 1.01 ± 0.084 | 1.13 ± 0.094 | 1.285 ± 0.11 | 1.48 ± 0.12
303.15 K | 0.656 ± 0.055 | 0.686 ± 0.057 | 0.731 ± 0.061 | 0.78 ± 0.065 | 0.849 ± 0.071 | 0.928 ± 0.077 | 1.034 ± 0.086 | 1.17 ± 0.097 | 1.34 ± 0.11
308.15 K | 0.615 ± 0.052 | 0.641 ± 0.054 | 0.68 ± 0.057 | 0.723 ± 0.06 | 0.785 ± 0.066 | 0.855 ± 0.071 | 0.948 ± 0.079 | 1.066 ± 0.089 | 1.217 ± 0.1
